Experimental data from US9353110B2, “Fused heterocyclic compound” (Sumitomo Chemical Company, Limited, priority 2011, dated 2016).

Tests used:
Type in all cases: in vivo
[1] = system: Musca domestica; assay: Test Example 8: filter paper with sucrose bait against Musca domestica; settings: 500 ppm test solution, 0.7 ml on filter paper, 10 female imagoes, after 24 hours
Description: Each test solution was prepared by diluting a formulation containing any of the present compounds 1, 3-5, 8, 15-16, 19-20, 23, 27, 29, 37, 40, 44, 48, 60-61, 64, 72, 74, 518, 523 and 528 as obtained in Formulation Example 5, with water so as to give 500 ppm of the concentration of the active ingredient.
(§1) A filter paper having a diameter of 5.5 cm was spread on the bottom of a polyethylene cup having a diameter of 5.5 cm and each test solution (0.7 ml) was added dropwise onto the filter paper. As a bait sucrose (30 mg) was uniformly placed on the filter paper. Into the polyethylene cup, 10 female imagoes of Musca domestica were released and the cup was sealed with a lid. After 24 hours, the number of surviving Musca domestica was examined and the death rate of the pest was calculated.

[2] = system: Haemaphysalis longicornis; assay: Test Example 11: coated screw tube against nymphal ticks Haemaphysalis longicornis; settings: 2 mg compound coated on inner wall of screw tube, 5 non-blood-sucking nymphal ticks, after 2 days
Description: Each 2 mg of the present compounds 1, 5, 8, 15-16, 19, 23, 25-27, 30, 37, 40, 49, 61, 63, 99 and 516 was put into a screw tube (Maruemu No. 5; 27×55 mm). Acetone (0.2 ml) was added thereto and sealed with a cap. After dissolving the compound in acetone, the screw tube was rotated and inverted to uniformity coat the solution onto the whole inner wall of the tube. After removing the cap, the solution was air-dried for about 2 hours. Then, non-blood-sucking nymphal ticks, Haemaphysalis longicornis (5 ticks/group) were released into the tube, and the tube was sealed with the cap. After 2 days, the number of dead tick was counted, and a death rate was calculated according to the following equation: Death rate (%)=(Number of dead tick/Number of tested tick)×100

[3] = system: Blattalla germanica; assay: Test Example 9: filter paper with sucrose bait against Blattalla germanica; settings: 500 ppm test solution, 0.7 ml on filter paper, 2 male imagoes, after 6 days
Description: Each test solution was prepared by diluting a formulation containing any of the present compounds 4-5, 19-20, 28-29, 40, 44, 48, 60, 71-74, 89, 523 and 528 as obtained in Formulation Example 5, with water so as to give 500 ppm of the concentration of the active ingredient.
as §1, with “2 male” for “10 female”, “Blattalla germanica” for “Musca domestica”, “6 days,” for “24 hours,”

## CCS(=O)(=O)c1cccnc1-c1nc2cc(C(F)(F)F)cc(S(=O)(=O)CC(F)(F)F)c2n1C [compound 518]
[1]
  death rate: 100%

## CCS(=O)(=O)c1cc(C(F)(F)F)cnc1-c1nc2cc(C(F)(F)C(F)(F)F)cnc2n1C [compound 19]
[2]
  death rate: 100%
[3]
  death rate: 100%
[1]
  death rate: 100%

## CCS(=O)(=O)c1cccnc1-c1nc2cc(S(=O)(=O)C(F)(F)F)cnc2n1C [compound 16]
[2]
  death rate: 100%
[1]
  death rate: 100%

## CCSc1cc(C(F)(F)F)cnc1-c1nc2cc(C(F)(F)F)cnc2n1C [compound 4]
[3]
  death rate: 100%

## CCSc1cccnc1-c1nc2cc(C(F)(F)F)cc(Sc3ccccc3)c2n1C [compound 516]
[2]
  death rate: 100%

## CCS(=O)(=O)c1cc(C(F)(F)F)cnc1-c1nc2cc(C(F)(F)C(F)(F)F)ccc2n1C [compound 40]
[2]
  death rate: 100%
[3]
  death rate: 100%
[1]
  death rate: 100%

## CCS(=O)(=O)c1cccnc1-c1nc2cc([S+]([O-])C(F)(F)F)cnc2n1C (stereo not shown) [compound 20]
[3]
  death rate: 100%
[1]
  death rate: 100%

## CCS(=O)(=O)c1cc(C(F)(F)F)cnc1-c1nc2cc(C(F)(F)F)cnc2n1C [compound 5]
[2]
  death rate: 100%
[3]
  death rate: 100%
[1]
  death rate: 100%

## CCS(=O)(=O)c1cc(C(F)(F)F)cnc1-c1nc2cc(SC(F)(F)F)cnc2n1C [compound 44]
[3]
  death rate: 100%
[1]
  death rate: 100%

## CCS(=O)(=O)c1cc(C(F)(F)C(F)(F)F)cnc1-c1nc2cc(C(F)(F)C(F)(F)F)cnc2n1C [compound 74]
[3]
  death rate: 100%
[1]
  death rate: 100%

## CCSc1cccnc1-c1nc2cc(C(F)(F)F)cnc2n1C [compound 1]
[2]
  death rate: 100%
[1]
  death rate: 100%

## CCS(=O)(=O)c1cccnc1-c1nc2cc(SC(F)(F)F)cnc2n1C [compound 15]
[2]
  death rate: 100%
[1]
  death rate: 100%

## CCSc1cc(C(F)(F)C(F)(F)F)cnc1-c1nc2cc(C(F)(F)F)cnc2n1C [compound 71]
[3]
  death rate: 100%

## CCS(=O)(=O)c1cccnc1-c1nc2cc(S(=O)(=O)C(F)(F)F)ccc2n1C [compound 64]
[1]
  death rate: 100%

## CCS(=O)(=O)c1cccnc1-c1nc2cc(C(F)(F)C(F)(F)F)ccc2n1C [compound 27]
[2]
  death rate: 100%
[1]
  death rate: 100%

## CCS(=O)(=O)c1cc(C(F)(F)F)cnc1-c1nc2cc(C(F)(F)C(F)(F)F)c[n+]([O-])c2n1C [compound 523]
[3]
  death rate: 100%
[1]
  death rate: 100%

## CCS(=O)(=O)c1cc(C(F)(F)F)cnc1-c1nc2cc(C(F)(F)F)c[n+]([O-])c2n1C [compound 48]
[3]
  death rate: 100%
[1]
  death rate: 100%

## CCSc1cc(C(F)(F)F)cnc1-c1nc2cc(SC(F)(F)F)cnc2n1C [compound 28]
[3]
  death rate: 100%

## CCS(=O)(=O)c1cc(C(F)(F)F)cnc1-c1nc2cc(S(=O)(=O)C(F)(F)F)cnc2n1C [compound 25]
[2]
  death rate: 100%

## CCSc1cccnc1-c1nc2cc(SC(F)(F)F)ccc2n1C [compound 61]
[2]
  death rate: 100%
[1]
  death rate: 100%

## CCS(=O)(=O)c1cc(C(F)(F)C(F)(F)F)cnc1-c1nc2cc(C(F)(F)F)cnc2n1C [compound 72]
[1]
  death rate: 100%

## CCSc1cccnc1-c1nc2cc(C(F)(F)F)ccc2n1C [compound 30]
[2]
  death rate: 100%

## CCS(=O)(=O)c1cccnc1-c1nc2cc(C(F)(F)C(F)(F)F)cnc2n1C [compound 8]
[2]
  death rate: 100%
[1]
  death rate: 100%

## CCS(=O)(=O)c1cccnc1-c1nc2cc(C(F)(F)F)cnc2n1C [compound 3]
[1]
  death rate: 100%

## CCS(=O)(=O)c1cc(C(F)(F)F)cnc1-c1nc2cc([S+]([O-])C(F)(F)F)cnc2n1C (stereo not shown) [compound 60]
[3]
  death rate: 100%
[1]
  death rate: 100%

## CCS(=O)(=O)c1cccnc1-c1nc2cc(SC(F)(F)F)ccc2n1C [compound 63]
[2]
  death rate: 100%

## CCSc1cccnc1-c1nc2cc(OC(F)(F)F)ccc2n1C [compound 49]
[2]
  death rate: 100%

## CCS(=O)(=O)c1cc(C(OC)(OC)OC)cnc1-c1nc2cc(C(F)(F)C(F)(F)F)cnc2n1C [compound 528]
[3]
  death rate: 100%
[1]
  death rate: 100%

## CCS(=O)(=O)c1cc(C(F)(F)F)cnc1-c1nc2cc(C(F)(F)F)c(Cl)nc2n1C [compound 89]
[3]
  death rate: 100%

## CCS(=O)(=O)c1cc(C(F)(F)F)cnc1-c1nc2cc(C(F)(F)F)c(N(C)C)nc2n1C [compound 99]
[2]
  death rate: 100%
